Our source for the speed of sound and mass density values is the NIST ThermoML archive (doi:10.1016/j.jct.2013.11.001).

± gives the expanded uncertainty stated by the source.

This data set in a line: cn = amount concentration of the nth substance listed, in mol/dm3. Conditions: 298.15 K, 101 kPa, Liquid, c1 = 0.1; for speed of sound: Sing-around technique in a fixed-path interferometer; for mass density: Vibrating tube method.

With `CCCCCCCCCCCC[N+](C)(C)C.[Br-]` [dodecyltrimethylammonium bromide] + O, the speed of sound is reported as 1502 ± 1.2 m/s and the mass density is 998.575 ± 0.11 kg/m3.
In the same order, the values of `CCCCCCCCCCCCCC[N+](C)(C)C.[Br-]` [tetradecyltrimethylammonium bromide] + O are 1499.5 ± 1.2 m/s and 998.003 ± 0.11 kg/m3.

A word on the speed of sound: it is how fast a sound wave travels through the sample. By mass density is commonly meant the mass of a sample divided by its volume.
